Assay results published in patent US20250136606A1, “MODULATORS OF TRPML, THEIR COMPOSITIONS AND METHODS OF USE” (Caraway Therapeutics, Inc., priority 2021, published 2025).
Where two headings read alike, the source gives them in different places.

Experiments:
[1] = target: TRPML1 (Homo sapiens, UniProt Q9GZU1); test: Fluorescent TRPML1 assay (Fluo4-AM calcium fluorescence in doxycycline-induced HEK-293 Trex cells); format: cell-based
Procedure: (§1) HEK-293 Trex cells were stably transfected with a construct consisting of the human coding sequence for TRPML1 cloned into the […] plasmid pCDNA5 T/O. Mutations were introduced into the TRPML1 sequence to facilitate expression on the cell surface (Silvia Vergarajauregui, Rosa Puertollano, Traffic. 2006 March; 7(3): 337-353). Briefly, the cells are cultured in 150 mm round tissue culture dishes containing 20 mL of media. The day before the assay the cells are rinsed with DPBS-Ca—Mg and then treated briefly with Trypsin-EDTA. The Trypsin-EDTA is diluted with growth media, and cells are counted. 38×10^6 cells are re-plated into 150 mm round tissue culture dishes in media containing 0.5 ug/mL doxycycline to induce expression of hTRPML1.
(§2) The day of the experiment cells are lifted from the plates as above and collected by centrifugation. The cells are then suspended in dye loading buffer consisting of Ringer's solution supplemented with 0.1% Pluronic Acid and 1 micromolar Fluo4-AM dye. Cells are loaded for ˜60 minutes in the dark with occasional mixing. The cells are collected by centrifugation, the loading media aspirated, and the cells resuspended in 25 mL Ringer's solution and incubated ˜60 minutes in the dark. The cells are again collected by centrifugation, rinsed in Ringer's Solution and resuspended to […] in modified Ringer's solution containing 10 mM calcium.
(§3) Compounds are dissolved to a concentration of 10 millimolar with DMSO. Compound plates are created by dispensing compounds into 384 well black wall clear bottom plates (Greiner 781091). Positive and negative controls are included on each plate. Typically, different amounts of each compound are tested ranging from 100 nanoMoles (20 micromolar final concentration) decreasing in half-log steps to 31 picoMoles (6 nanomolar final concentration). Each concentration is typically tested in triplicate.
(§4) 50 microliters of dye-loaded cells are dispensed into each well of the compound assay plate created above. The fluorescence in each well is then determined with an excitation wavelength of 480 nm and an emission wavelength of 540 nm using either a Molecular Devices SpectraMax multimode plate reader or a Hamamatsu FDSS/uCell plate imager.
(§5) The resulting fluorescence for each well is exported as an ascii file and loaded into our LIMS for analysis. The percent activity of each compound at each concentration is determined by comparison to the positive and negative control wells included in each plate.
(§6) EC50 values were calculated using a non-linear regression of Prism. In the table, “A” indicates an EC50 of less than 100 nM, “B” indicates an EC50 range from 100 nM to 500 nM; “C” indicates an EC50 range from 500 nM to 2 μM; and “D” indicates an EC50 greater than 2 μM.

[2] = target: T1, TRPML3 (Homo sapiens, UniProt Q8TDD5); test: Fluorescent TRPML3 assay (performed as for TRPML1, substituting the TRPML3 subtype); format: cell-based
T1 construct: expressed in transfected cells
T1 sequence (Q8TDD5 1-553): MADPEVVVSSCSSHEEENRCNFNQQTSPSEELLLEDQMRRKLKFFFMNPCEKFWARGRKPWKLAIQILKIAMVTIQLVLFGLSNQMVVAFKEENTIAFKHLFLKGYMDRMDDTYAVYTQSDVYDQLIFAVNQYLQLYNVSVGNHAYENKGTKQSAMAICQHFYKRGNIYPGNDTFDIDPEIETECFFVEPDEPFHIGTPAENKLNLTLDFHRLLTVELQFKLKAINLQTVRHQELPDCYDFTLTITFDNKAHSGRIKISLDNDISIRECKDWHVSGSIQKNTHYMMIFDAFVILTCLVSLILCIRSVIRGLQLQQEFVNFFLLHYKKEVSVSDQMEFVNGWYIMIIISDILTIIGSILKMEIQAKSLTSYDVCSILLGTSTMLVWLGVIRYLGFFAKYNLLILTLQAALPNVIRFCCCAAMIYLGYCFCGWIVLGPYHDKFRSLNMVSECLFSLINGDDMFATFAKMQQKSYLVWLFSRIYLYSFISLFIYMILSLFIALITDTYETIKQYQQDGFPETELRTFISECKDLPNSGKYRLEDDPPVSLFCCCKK
Procedure: as §1, §2, §3, §4, §5
TRPML2 and TRPML3 Assays Assays for TRPML2 and TRPML3 were performed as above for TRPML1, by substituting the appropriate TRPML2 or TRPML3 subtype for the TRPML1.
as §6

Sequence of TRPML1 (Q9GZU1 whole entry L15A/L16A/L577A/L578A, form open): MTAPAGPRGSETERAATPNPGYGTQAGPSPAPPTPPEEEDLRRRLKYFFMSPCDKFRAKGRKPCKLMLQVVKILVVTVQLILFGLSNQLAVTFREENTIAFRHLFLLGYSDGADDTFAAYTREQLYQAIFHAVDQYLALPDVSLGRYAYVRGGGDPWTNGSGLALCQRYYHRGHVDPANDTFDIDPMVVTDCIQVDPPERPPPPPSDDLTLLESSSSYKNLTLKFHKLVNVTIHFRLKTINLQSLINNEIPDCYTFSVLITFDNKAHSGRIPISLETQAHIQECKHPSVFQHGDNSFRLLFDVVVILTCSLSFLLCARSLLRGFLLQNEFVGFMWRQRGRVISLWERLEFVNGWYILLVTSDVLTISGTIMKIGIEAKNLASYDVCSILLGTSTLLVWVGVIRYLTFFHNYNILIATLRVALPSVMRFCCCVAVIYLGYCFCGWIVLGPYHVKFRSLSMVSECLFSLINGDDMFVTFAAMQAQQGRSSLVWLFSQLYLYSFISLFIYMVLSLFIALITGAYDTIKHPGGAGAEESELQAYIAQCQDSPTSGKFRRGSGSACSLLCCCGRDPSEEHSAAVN

Row | Compound | EC50 ([1]; fluorescent calcium assay) [nM] | EC50 ([2]; fluorescent calcium assay) [nM] | EC50 [1] [nM] | EC50 [2] [nM]
1 | CC(C)(C)OC(=O)N1CCN(c2ncnc3c2c(C2CC2)cn3-c2cc(F)cc(F)c2)C[C@@H]1C(F)F (single isomer, unassigned) [Compound 315] | 500 to 2000 | 500 to 2000 | – | –
2 | C[C@@H]1CN(c2ncnc3c2c(C(F)(F)F)cn3[C@H]2CCCC(F)(F)C2)[C@@H](C)CN1C(=O)OC(C)(C)C (single isomer, unassigned) [Compound 713] | – | – | 500 to 2000 | 100 to 500
3 | CCOC(=O)N1C[C@H](C)N(c2ncnc3c2c(-c2cnccn2)cn3-c2cccc(Cl)c2)C[C@H]1C [Compound 125, Ethyl (2R,5S)-4-(7-(3-chlorophenyl)-5-(pyrazin-2-yl)-7H-pyrrolo[2,3-d]pyrimidin-4-yl)-2,5-dimethylpiperazine-1-carboxylate] | 500 to 2000 | 500 to 2000 | – | –
4 | CCOC(=O)N1CCN(c2ncnc3c2c(-c2ccccc2F)cn3-c2cncc(OC)c2)[C@@H](C)C1 [Compound 126, ethyl (S)-4-(5-(2-fluorophenyl)-7-(5-methoxypyridin-3-yl)-7H-pyrrolo[2,3-d]pyrimidin-4-yl)-3-methylpiperazine-1-carboxylate] | 500 to 2000 | 500 to 2000 | – | –
5 | CCOC(=O)N1CCN(c2ncnc3c2c(C2CC2)cn3-c2cncc(C)c2)[C@@H](C)C1 [Compound 153, ethyl (S)-4-(5-cyclopropyl-7-(5-methylpyridin-3-yl)-7H-pyrrolo[2,3-d]pyrimidin-4-yl)-3-methylpiperazine-1-carboxylate] | > 2000 | > 2000 | – | –
6 | CCOC(=O)N1C[C@H](C)N(c2ncnc3c2c(C2CC2)cn3-c2cccc(Cl)c2)[C@@H](C)C1 [Compound 189, ethyl (3S,5S)-4-(7-(3-chlorophenyl)-5-cyclopropyl-7H-pyrrolo[2,3-d]pyrimidin-4-yl)-3,5-dimethylpiperazine-1-carboxylate] | 100 to 500 | 100 to 500 | – | –
7 | C[C@@H]1CN(C(=O)OC(C)(C)C)CCN1c1ncnc2c1c(N1CCOCC1)cn2-c1cc(F)cc(F)c1 [Compound 227, tert-Butyl (R)-4-(7-(3,5-difluorophenyl)-5-morpholino-7H-pyrrolo[2,3-d]pyrimidin-4-yl)-3-methylpiperazine-1-carboxylate] | 500 to 2000 | 100 to 500 | – | –
8 | C[C@@H]1CN(c2ncnc3c2c(N2CCC[C@H]2CO)cn3-c2cccc(Cl)c2)CCN1C(=O)OC(C)(C)C [Compound 283, tert-butyl (R)-4-(7-(3-chlorophenyl)-5-((S)-2-(hydroxymethyl)pyrrolidin-1-yl)-7H-pyrrolo[2,3-d]pyrimidin-4-yl)-2-methylpiperazine-1-carboxylate] | > 2000 | 100 to 500 | – | –
9 | C[C@H]1CCCN1c1cn(-c2cccc(Cl)c2)c2ncnc(N3CCN(C(=O)OC(C)(C)C)C[C@@H]3C)c12 [Compound 316, tert-butyl (S)-4-(7-(3-chlorophenyl)-5-((S)-2-methylpyrrolidin-1-yl)-7H-pyrrolo[2,3-d]pyrimidin-4-yl)-3-methylpiperazine-1-carboxylate] | 500 to 2000 | < 100 | – | –
10 | C[C@H]1CN(C(=O)OC(C)(C)C(F)(F)F)CCN1c1ncnc2c1c(N1CCCC1)cn2C1CCCCC1 [Compound 359, 1,1,1-trifluoro-2-methylpropan-2-yl (S)-4-(7-cyclohexyl-5-(pyrrolidin-1-yl)-7H-pyrrolo[2,3-d]pyrimidin-4-yl)-3-methylpiperazine-1-carboxylate] | 100 to 500 | – | – | –
11 | C[C@H]1CN(C(=O)OC(C)(C)C)CCN1c1ncnc2c1c(N1CCCC1)cn2C1CCOCC1 [Compound 360, tert-butyl (S)-3-methyl-4-(5-(pyrrolidin-1-yl)-7-(tetrahydro-2H-pyran-4-yl)-7H-pyrrolo[2,3-d]pyrimidin-4-yl)piperazine-1-carboxylate] | 500 to 2000 | – | – | –
12 | C[C@H]1CN(C(=O)OC(C)(C)C)CCN1c1ncnc2c1c(C1CC1)cn2[C@@H]1C[C@@H]2CC[C@H]1C2 [Compound 361, tert-butyl (S)-4-(7-((1S,2R,4R)-bicyclo[2.2.1]heptan-2-yl)-5-cyclopropyl-7H-pyrrolo[2,3-d]pyrimidin-4-yl)-3-methylpiperazine-1-carboxylate] | < 100 | – | – | –
13 | C[C@H]1CN(C(=O)OCC(F)(F)F)CCN1c1ncnc2c1c(-c1ccccn1)cn2-c1cc(C#N)ccn1 [Compound 372, 2,2,2-trifluoroethyl (S)-4-(7-(4-cyanopyridin-2-yl)-5-(pyridin-2-yl)-7H-pyrrolo[2,3-d]pyrimidin-4-yl)-3-methylpiperazine-1-carboxylate] | 100 to 500 | 100 to 500 | – | –
14 | N#Cc1ccnc(-n2cc(-c3ccccc3F)c3c(N4CCN(C(=O)OCC(F)(F)F)CC4)ncnc32)c1 [Compound 373, 2,2,2-trifluoroethyl 4-(7-(4-cyanopyridin-2-yl)-5-(2-fluorophenyl)-7H-pyrrolo[2,3-d]pyrimidin-4-yl)piperazine-1-carboxylate] | 100 to 500 | < 100 | – | –
15 | C[C@H]1CN(C(=O)OC(C)(C)C)CCN1c1ncnc2c1c(N1CCOCC1)cn2-c1cc(C#N)ccn1 [Compound 380, tert-butyl (S)-4-(7-(4-cyanopyridin-2-yl)-5-morpholino-7H-pyrrolo[2,3-d]pyrimidin-4-yl)-3-methylpiperazine-1-carboxylate] | 100 to 500 | 500 to 2000 | – | –
16 | C[C@H]1CN(C(=O)OC(C)(C)C)CCN1c1ncnc2c1c(C1CC1)cn2C1CCCC(F)(F)C1 (stereo partly drawn) [Compound 382, tert-butyl (3S)-4-(5-cyclopropyl-7-(3,3-difluorocyclohexyl)-7H-pyrrolo[2,3-d]pyrimidin-4-yl)-3-methylpiperazine-1-carboxylate] | 500 to 2000 | 500 to 2000 | – | –
17 | C[C@H]1CN(C(=O)OC(C)(C)C)CCN1c1ncnc2c1c(N1CCCC1)cn2C12CCC(CC1)CC2 [Compound 383, tert-butyl (S)-4-(7-(bicyclo[2.2.2]octan-1-yl)-5-(pyrrolidin-1-yl)-7H-pyrrolo[2,3-d]pyrimidin-4-yl)-3-methylpiperazine-1-carboxylate] | 100 to 500 | > 2000 | – | –
18 | CC(C)(OC(=O)N1CCN(c2ncnc3c2c(C2CC2)cn3-c2cc(C#N)ccn2)CC1)C(F)(F)F [Compound 385, 1,1,1-trifluoro-2-methylpropan-2-yl 4-(7-(4-cyanopyridin-2-yl)-5-cyclopropyl-7H-pyrrolo[2,3-d]pyrimidin-4-yl)piperazine-1-carboxylate] | 100 to 500 | 100 to 500 | – | –
19 | CC(C)OC(=O)N1CCN(c2ncnc3c2c(C2CC2)cn3-c2cc(C#N)ccn2)[C@@H](C)C1 [Compound 386, isopropyl (S)-4-(7-(4-cyanopyridin-2-yl)-5-cyclopropyl-7H-pyrrolo[2,3-d]pyrimidin-4-yl)-3-methylpiperazine-1-carboxylate] | < 100 | 100 to 500 | – | –
20 | CC(C)(C)OC(=O)N1CCN(c2ncnc3c2c(-c2ccccc2F)cn3-c2cc(C#N)ccn2)CC12CC2 [Compound 392, tert-butyl 7-(7-(4-cyanopyridin-2-yl)-5-(2-fluorophenyl)-7H-pyrrolo[2,3-d]pyrimidin-4-yl)-4,7-diazaspiro[2.5]octane-4-carboxylate] | 100 to 500 | < 100 | – | –
21 | C[C@@H]1CN(C(=O)OC(C)(C)C)CCN1c1ncnc2c1c(C1CC1)cn2-c1cc(C#N)ccn1 [Compound 393, tert-butyl (R)-4-(7-(4-cyanopyridin-2-yl)-5-cyclopropyl-7H-pyrrolo [2,3-d]pyrimidin-4-yl)-3-methylpiperazine-1-carboxylate] | < 100 | < 100 | – | –
